Experimental data as given in patent US20250152535A1, “COMPOSITION FOR PREVENTING OR IMPROVING HEPATIC DYSFUNCTION” (KYOWA HAKKO BIO CO., LTD., priority 2022, published 2025).

Key:
ICR mice = assay: Carbon tetrachloride (CCl4)-induced hepatic dysfunction model in mice, blood plasma AST and ALT levels; type: in vivo; settings: male ICR mice; 400 mg/kg/day once-daily oral for three days, then CCl4 0.04 mL/kg i.p.; blood 16 hours after CCl4; compared with group 2 (vehicle+CCl4)
Method: GSSSG dihydrate prepared by the method described in Patent Literature 1 was crushed in a mortar. To 10 mL of distilled water, the crushed GSSSG dihydrate (200 mg in terms of anhydride) was added and suspended. Then, twice as much sodium hydrogen carbonate as the GSSSG anhydride was added thereto on a molar basis, and the resultant mixture was mixed for 10 minutes. The obtained GSSSG solution was further diluted with distilled water to obtain administration samples 3 and 4. In addition, reduced glutathione (GSH) or oxidized glutathione (GSSG), manufactured by KYOWA HAKKO BIO Co., Ltd., was dissolved in distilled water to obtain each of administration samples 1 and 2.
Four-week-old male ICR mice (Charles River Laboratories Japan, Inc.) were acclimated for 1 week and then subjected to a test at 5 weeks of age. During the test period, the mice were allowed to freely drink water regarding water, allowed to freely ingest a solid feed CE-2 (CLEA Japan, Inc.), and kept at a temperature of 20° C. to 24° C., a humidity of 50% to 60%, and for 12 hours of light-dark cycle. Thereafter, the mice were divided into groups 1 to 6 so that each group included 3 or 4 mice. • Group 1: Normal (vehicle-no symptoms induced) • Group 2: Vehicle+CCl4 • Group 3: GSH 400 mg/kg/day (administration sample 1)+CCl4 • Group 4: GSSG 400 mg/kg/day (administration sample 2)+CCl4 • Group 5: GSSSG 100 mg/kg/day (administration sample 3)+CCl4
Group 6: GSSSG 400 mg/kg/day (administration sample 4)+CCl4
After the group dividing, the vehicle, the administration sample 1, the administration sample 2, the administration sample 3, or the administration sample 4 was subjected to an once-daily forced oral administration at the above-described dose for a total of three consecutive days. After 30 minutes from the final oral administration, CCl4 (0.04 mL/kg) suspended in olive oil was intraperitoneally administered to induce hepatic dysfunction.

HepG2 cells = assay: Protective effect against hepatocellular damage by hydrogen peroxide in HepG2 cells, cell survival rate by MTT assay; type: cell-based, human; settings: for Cell survival rate (%): then 0.1 mM hydrogen peroxide for 2 hours, control group = 100; for cell survival rate as compared with the solvent addition group: sample added before 0.1 mM hydrogen peroxide
Method: A human hepatoma-derived cell line (HepG2: HB-8065™, Lot number: 70029112) was obtained from American Type Culture Collection, and Dulbecco's Modified Eagle Medium containing 10% FBS (Thermo Fisher Scientific, Inc.) was used as a basal medium. Cells were cultured in an incubator of 37° C. and 5% CO2, and the cells that had been passaged to 16 to 25 generations were subjected to experimentation. The used GSSG and GSSSG were those manufactured by KYOWA HAKKO BIO Co., Ltd.
0.15 mL of a cell suspension obtained by adjusting the initial cell concentration to 2×10^4 cells/mL was seeded in a 96-well plate (Thermo Fisher Scientific, Inc.).
After the culturing for 4 hours from the seeding, GSSSG (for the addition group of the final concentration of 0.05 mM and the addition group of the final concentration of 0.1 mM) was added to the culture medium. In addition, apart from this, a group in which only the solvent of GSSSG (PBS in which sodium hydrogen carbonate was dissolved so that the concentration thereof was 15.8 mM) was added was defined as a solvent addition group. After the culturing for 20 hours from the sample addition, the culture medium was replaced with a culture medium (not containing GSSSG) obtained by adding hydrogen peroxide solution (FUJIFILM Wako Pure Chemical Corporation) to the above-described sample addition group and the solvent addition group so that the final concentration thereof was 0.1 mM, and then hepatocellular damage was induced. The control group was the group in which the same amount of PBS was added to the solvent addition group instead of hydrogen peroxide solution. After the culturing for 2 hours from the addition of hydrogen peroxide solution or PBS, the cell survival rate was measured according to the MTT assay, and the degree of hepatocellular damage was evaluated. For GSSG as well, an experiment was carried out in the same manner as in the GSSSG, except that PBS was used as a solvent.

Compound: oxidized glutathione [GSSG]
- blood plasma ALT level (ICR mice): significant suppression
- blood plasma AST level (ICR mice): significant suppression
- Cell survival rate (%) (HepG2 cells; sample 0.05 mM for 20 hours): 39.4%
- Cell survival rate (%) (HepG2 cells; sample 0.1 mM for 20 hours): 38.4%
- cell survival rate as compared with the solvent addition group (HepG2 cells): significantly decreased

Compound: N[C@@H](CCC(=O)N[C@@H](CSSSC[C@H](NC(=O)CC[C@H](N)C(=O)O)C(=O)NCC(=O)O)C(=O)NCC(=O)O)C(=O)O [GSSSG, glutathione trisulfide]
- blood plasma ALT level (ICR mice): tendency of the suppression
- blood plasma AST level (ICR mice): tendency of the suppression
- Cell survival rate (%) (HepG2 cells; sample 0.05 mM for 20 hours): 36.9%
- Cell survival rate (%) (HepG2 cells; sample 0.1 mM for 20 hours): 49.7%
- cell survival rate as compared with the solvent addition group (HepG2 cells): improved survival rate

Compound: N[C@@H](CCC(=O)N[C@@H](CS)C(=O)NCC(=O)O)C(=O)O [GSH, reduced glutathione]
- blood plasma ALT level (ICR mice): significant suppression
- blood plasma AST level (ICR mice): significant suppression
